Data taken from patent US10711001B2, “Macrocylic ligands with picolinate group(s), complexes thereof and also medical uses thereof” (GUERBET, priority 2015, dated 2020).
Where two headings read alike, the source gives them in different places. Marks after values point to notes of the source that are not given here.

Tests used:
[1] = pM = −log[M] calculated from protonation and stability constants; assay type: physicochemical; settings: calculated from the constants with CL = 10 × CM = 10^−5 M at pH 7.4
Description: The constant pM=-log[M] is used for this purpose. […] The ligand […]04214 has a p(Y) of 17.3, which is higher than that of PCTA (p(Y)=17.0), of […])=16.8) and of […])=16.9).

[2] = Stability constants of the yttrium complexes by potentiometry; assay type: physicochemical; settings: Y^3+
Experimental: (§1) The experiments were performed under an inert atmosphere in aqueous solutions thermostatically maintained at 25.0±0.1° C. The protonation and complexation titrations were performed in a jacketed glass titrations cell using a Metrohm 702 SM Titrino automatic burette connected to a Metrohm 6.0233.100 combined glass electrode. The titrations were controlled automatically by software after selection of the appropriate parameters avoiding monitoring during long measurements.
(§2) The ligand solutions were prepared at approximately 2.0×10^−3 M and the Cu^2+, Pb^2+ and y^3+ solutions at approximately 0.04 M from analytical-grade chloride salts and standardized by complexometric titration with H4edta (ethylenediaminetetraacetic acid)^1. The solution to be titrated contains approximately 0.05 mmol of ligand in a volume of 30.00 mL, the ionic strength of which was maintained at 0.10 M using KNO3 as electrolyte. 1.2 equivalents of metal cation (Cu^2+ or Pb^2+) were added to the ligand (0.05 mmol) during the standardization titrations of the ligand solution.
0.9 equivalent of metal cation (Y^3+) was added to the ligand during the complexation titration methods.
(§3) The potentiometric data were refined with the Hyperquad software^2 and the speciation diagrams were plotted using the HySS software^3.
(§4) The overall equilibrium constants βiH and βMmHhLl are defined by βMmHhLl=[MmHhLl]/[M]m[H]h[L]l, (βiH=[HhLl]/[H]h[L]l and βMH−1L=βML(OH)×Ke). The differences, in log units, between the protonation (or hydrolysis) values and the non-protonation constants give the intermediate reaction constants (log K) (with KMmHhLl=[MmHhLl]/[MmHh-1Ll][H]). The errors indicated are the standard deviations calculated by the adjustment program from all of the experimental data for each system.
The thermodynamic protonation and stability constants of the complexes were determined by potentiometry at 25° C. with control of the ionic strength (I=0.1 M KNO3). Refinement of the titration curves with the HyperQuad software makes it possible to determine the overall constants (log β), from which the partial constants (log K) are calculated.
The stability constants of the ligands Pc1a2pa sym P04213, Pc1a2pa asym P04214 et Pc2a1pa sym P04218 and P04221 with yttrium were determined by direct potentiometric titration. The log KYL constant values for the ligands Pc1a2pa sym, Pc1a2pa asym and Pc2a1pa sym are, respectively, 19.78, 19.49 and 19.28, and the log KYLH^−1 constant values are 11.84, 11.79 and 10.60.

[3] = Protonation constants of the ligands by potentiometry; assay type: physicochemical; settings: I = 0.1 KNO3, 25° C.
Experimental: as §1
The titrant is an approximately 0.1 M KOH solution prepared from an analytical-grade commercial vial and its exact concentration is obtained by applying the Gran method by titrating with a standard HNO3 solution.
as §2
The electromotive force of the solution was measured after calibration of the electrode by titration of a standard […] HNO3 solution. The [H^+] of the solutions was determined by measuring the electromotive force of the cell, E=E^o′+Q log [H^+]+Ej. The term “pH” is defined by −log[H^+]. E^o′ and Q are determined by the acidic region of the calibration curves. The liquid junction potential, Ej, is negligible under the experimental conditions used. The value of Ke=[H^+][OH^−] is 10^−13.78.
as §3, §4
Four protonation constants were determined for the ligands Pc1a2pa sym P04213, Pc1a2pa asym P04214, Pc2a1pa sym P04216 and Pc3pa P04221. These values are coherent with those determined for PCTMB (phosphonic acid, P,P′,P″-[3,6,9,15-tetraazabicyclo[9.3.1]pentadeca-1(15),11,13-triene-3,6,9-triyltris(methylene)]tris-, P,P′,P″-tributyl ester) and also with those described in the literature especially for PCTA (3,6,9,15-tetraazabicyclo[9.3.1]pentadeca-1(15),11,13-triene-3,6,9-triacetic acid), EDTA (ethylenediaminetetraacetic acid) and DOTA (1,4,7,10-tetraazacyclododecane-1,4,7,10-tetraacetic acid).

[4] = cited from earlier work
[5] = Y^3+, cited from earlier work
[6] = Complexation kinetics of the ligands with yttrium by UV-visible spectroscopy; assay type: physicochemical
Experimental: The formation of the yttrium(III) complexes of […] were studied in an aqueous solution of acetate buffer (C=0.150 M) at 25° C. under pseudo-first-order conditions.
The complexation kinetics of the ligands Pc1a2pa sym P04213, Pc1a2pa asym P04214 and Pc2a1pa sym P04218 with yttrium were studied at pH 3.8 and pH 5.5 in acetate buffer medium by UV-visible spectroscopy. Placed at the absorption maximum of the complex, the increase in absorbance intensity is measured every two seconds until the maximum absorbance is reached. The decrease in intensity of the absorbance at the absorbance maximum of the ligand is monitored when the absorption band of the complex is masked by that of the ligand. For this study, the concentration of the ligands Pc1a2pa sym and Pc1a2pa asym is 4×10^−5 M and 8×10^−5 M for the ligand Pc2a1pa sym. At pH 5.5 and 3.8, the ligand Pc1a2pa sym has the fastest complexation kinetics, with total complexation in 30 and 400 seconds, respectively. For the ligands Pc1a2pa asym and Pc2a1pa sym, the complexation is complete in 1100 seconds at pH 3.8 and 100 seconds at pH 5.5.

[7] = Relaxivity of the gadolinium complexes; assay type: physicochemical; settings: gadolinium complex of the ligand, water, 37° C.
Experimental: The relaxivity studies were performed on the gadolinium complexes of the ligands P04218, P04216 and P04213, on Minispec Mq-20 and Minispec Mq-60 machines (Brüker, Karlsruhe, Germany) at 20 MHz (0.47 T) and 60 MHz (1.4 T) in water at 37° C.
For each complex prepared previously, a [Gd] concentration range extending from 0.5 to 5 mM was prepared and the values T1 and T2 of each of these solutions were then measured to determine the relaxivity values r1 and r2 by means of equation 1. For each of the ligands, a trend curve whose correlation coefficient was equal to or very close to 1 was obtained, which made it possible to check equation 1 and to validate the quality of the measurements taken. The curves plotted make it possible to determine the relaxivity value “r” which corresponds to coefficient “a” of the equation for the straight line “ax+b”.

[8] = direct potentiometric titration, 25° C., I=0.1 M KNO3
[9] = determined by competition with EDTA, 0.1M KNO3

| pY (pM = −log[M]) [1] | log KMHiL [ML]/[MLOH][H] (log KYLH^−1) [2, 8] | log KMHiL [ML]/[M][L] (log KYL) [2, 8] | log Ki^H [H2L]/[HL][H] [3] | log Ki^H [H3L]/[H2L][H] [3] | log Ki^H [HL]/[L][H] [3] | log Ki^H [H4L]/[H3L][H] [3] | Relaxivity r1 ([7]; 20 MHz (0.47 T)) | Relaxivity r1 ([7]; 60 MHz (1.4 T)) | Compound | time to total complexation with yttrium ([6]; pH 3.8, acetate buffer) [s] | time to total complexation with yttrium ([6]; pH 5.5, acetate buffer) [s] | also measured |
| --- | --- | --- | --- | --- | --- | --- | --- | --- | --- | --- | --- | --- |
|  |  |  | 5.95 | 3.82 | 10.03 | 2.98 |  |  | O=C(O)c1cccc(CN2CCN(Cc3cccc(C(=O)O)n3)Cc3cccc(n3)CN(Cc3cccc(C(=O)O)n3)CC2)n1 [Ligand P04221] |  |  |  |
| 16.8 | 11.84 | 19.78 | 5.58 | 4.23 | 11.30 | 3.01 | r1 = 1.9 mmol^−1s^−1 | r1 = 1.6 mmol^−1s^−1 | O=C(O)CN1CCN(Cc2cccc(C(=O)O)n2)Cc2cccc(n2)CN(Cc2cccc(C(=O)O)n2)CC1 [Ligand P04213] | 400 | 30 |  |
|  |  |  |  |  |  |  | r1 = 3.7 mmol^−1s^−1 | r1 = 3.2 mmol^−1s^−1 | O=C(O)CN1CCN(CC(=O)O)Cc2cccc(n2)CN(Cc2cccc(C(=O)O)n2)CC1 [Ligand P04216] |  |  |  |
| 17.3 | 11.79 | 19.49 | 6.73 | 3.86 | 10.50 | 2.98 |  |  | O=C(O)CN1CCN(Cc2cccc(C(=O)O)n2)CCN(Cc2cccc(C(=O)O)n2)Cc2cccc(n2)C1 [Ligand P04214] | 1100 | 100 |  |

Further lines, the molecule ahead of its results:

| Compound | pY (pM = −log[M]) [1] | log KMHiL [ML]/[MLOH][H] (log KYLH^−1) [2, 8] | log KMHiL [ML]/[M][L] (log KYL) [2, 8] | log Ki^H [H2L]/[HL][H] [3] | log Ki^H [H3L]/[H2L][H] [3] | log Ki^H [HL]/[L][H] [3] | log Ki^H [H4L]/[H3L][H] [3] | Relaxivity r1 ([7]; 20 MHz (0.47 T)) | Relaxivity r1 ([7]; 60 MHz (1.4 T)) | time to total complexation with yttrium ([6]; pH 3.8, acetate buffer) [s] | time to total complexation with yttrium ([6]; pH 5.5, acetate buffer) [s] | also measured |
| --- | --- | --- | --- | --- | --- | --- | --- | --- | --- | --- | --- | --- |
| O=C([O-])c1cccc(CN2CCN(Cc3cccc(C(=O)[O-])n3)Cc3cccc(n3)CN(Cc3cccc(C(=O)[O-])n3)CC2)n1.[Y+3] [Ligand P04222] | 14.7 | 11.02 | 16.42 |  |  |  |  |  |  |  |  | log KMHiL [MHL]/[ML][H] [2, 8]: 3.11 |
| CCCCOP(=O)(O)CN1CCN(CP(=O)(O)OCCCC)Cc2cccc(n2)CN(CP(=O)(O)OCCCC)CC1 [PCTMB, phosphonic acid, P,P′,P″-[3,6,9,15-tetraazabicyclo[9.3.1]pentadeca-1(15),11,13-triene-3,6,9-triyltris(methylene)]tris-, P,P′,P″-tributyl ester, reference compound] | 16.7 |  |  | 5.28 | 1.72 | 11.16 |  |  |  |  |  | log KMHiL [MHL]/[ML][H] [2, 9]: 3.45; log KMHiL [ML]/[MLOH][H] [2, 9]: 9.10; log KMHiL [ML]/[M][L] [2, 9]: 19.49 |
| O=C(O)CN(CCN(CC(=O)O)CC(=O)O)CC(=O)O [EDTA, ethylenediaminetetraacetic acid] | 16.6 |  |  |  |  |  |  |  |  |  |  | log Ki^H [H2L]/[HL][H] ([4]; I = 0.1 KNO3): 6.16; log Ki^H [H3L]/[H2L][H] ([4]; I = 0.1 KNO3): 2.71; log Ki^H [H4L]/[H3L][H] ([4]; I = 0.1 KNO3): 2.0; log Ki^H [HL]/[L][H] ([4]; I = 0.1 KNO3): 10.22; log KMHiL [ML]/[M][L] ([5]; Ref 5, 0.1M NMe4Cl): 18.5 ^d |
| O=C(O)CN1CCN(Cc2cccc(C(=O)O)n2)CCN(CC(=O)O)Cc2cccc(n2)C1 [Ligand P04218] | 16.9 | 10.60 | 19.28 | 7.38 | 3.95 | 10.43 | 2.15 | r1 = 3.9 mmol^−1s^−1 | r1 = 3.2 mmol^−1s^−1 | 1100 | 100 |  |
| O=C(O)CN1CCN(CC(=O)O)Cc2cccc(n2)CN(CC(=O)O)CC1 [PCTA, 3,6,9,15-tetraazabicyclo[9.3.1]pentadeca-1(15),11,13-triene-3,6,9-triacetic acid] | 17.0 |  |  |  |  |  |  |  |  |  |  | log Ki^H [H2L]/[HL][H] ([4]; I = 1.0 KCl): 7.35; log Ki^H [H3L]/[H2L][H] ([4]; I = 1.0 KCl): 3.83; log Ki^H [H4L]/[H3L][H] ([4]; I = 1.0 KCl): 2.12; log Ki^H [H5L]/[H4L][H] ([4]; I = 1.0 KCl): 1.29; log Ki^H [HL]/[L][H] ([4]; I = 1.0 KCl): 11.36; log KMHiL [MHL]/[ML][H] ([5]; Ref 3, 1.0M KCl): 1.81; log KMHiL [ML]/[MLOH][H] ([5]; Ref 3, 1.0M KCl): 11.10; log KMHiL [ML]/[M][L] ([5]; Ref 3, 1.0M KCl): 20.28 |
| O=C(O)CN1CCN(CC(=O)O)CCN(CC(=O)O)CCN(CC(=O)O)CC1 [DOTA, 1,4,7,10-tetraazacyclododecane-1,4,7,10-tetraacetic acid] | 18.8 |  |  |  |  |  |  |  |  |  |  | log Ki^H [H2L]/[HL][H] ([4]; I = 0.1 Me4NNO3): 9.76; log Ki^H [H3L]/[H2L][H] ([4]; I = 0.1 Me4NNO3): 4.56; log Ki^H [H4L]/[H3L][H] ([4]; I = 0.1 Me4NNO3): 4.09; log KMHiL [ML]/[M][L] ([5]; Ref 7, 0.1M NMe4NO3): 24.9 ^h |
